From the NIST ThermoML archive (doi:10.1016/j.fluid.2017.07.006)

Settings: Liquid

CC(O)CO (centres undefined) [1,2-propanediol]
Settings	mass density [kg/m3]	viscosity [mPa·s]
292.1 K, 101.33 kPa, Capillary tube (Ostwald / Ubbelohde) method	–	60.61
293.1 K, 101.33 kPa, Capillary tube (Ostwald / Ubbelohde) method	–	58.09
293.15 K, 101.33 kPa, Pycnometric method	1035.5	–
298.15 K, 98 kPa, Buoyancy - hydrostatic balance	1032.56	–
298.15 K, 98 kPa, Falling or rolling sphere viscometry	–	43.69
298.15 K, 101.33 kPa, Capillary tube (Ostwald / Ubbelohde) method	–	43.69
298.15 K, 101.33 kPa, Pycnometric method	1032.56	–
298.15 K, 49030 kPa, Buoyancy - hydrostatic balance	1055.29	–
298.15 K, 49030 kPa, Falling or rolling sphere viscometry	–	64.02
298.15 K, 98060 kPa, Buoyancy - hydrostatic balance	1072.94	–
298.15 K, 98060 kPa, Falling or rolling sphere viscometry	–	94.28
298.15 K, 147100 kPa, Buoyancy - hydrostatic balance	1088.48	–
298.15 K, 147100 kPa, Falling or rolling sphere viscometry	–	134.1
298.15 K, 196130 kPa, Buoyancy - hydrostatic balance	1104.32	–
298.15 K, 196130 kPa, Falling or rolling sphere viscometry	–	187.2
298.15 K, 245160 kPa, Buoyancy - hydrostatic balance	1115.28	–
298.15 K, 245160 kPa, Falling or rolling sphere viscometry	–	260.7
303.15 K, 98 kPa, Buoyancy - hydrostatic balance	1028.87	–
303.15 K, 98 kPa, Falling or rolling sphere viscometry	–	32.35
303.15 K, 49030 kPa, Buoyancy - hydrostatic balance	1052.03	–
303.15 K, 49030 kPa, Falling or rolling sphere viscometry	–	48.25
303.15 K, 98060 kPa, Buoyancy - hydrostatic balance	1070.79	–
303.15 K, 98060 kPa, Falling or rolling sphere viscometry	–	69.46
303.15 K, 147100 kPa, Buoyancy - hydrostatic balance	1086.25	–
303.15 K, 147100 kPa, Falling or rolling sphere viscometry	–	97.33
303.15 K, 196130 kPa, Buoyancy - hydrostatic balance	1101.4	–
303.15 K, 196130 kPa, Falling or rolling sphere viscometry	–	134.7
303.15 K, 245160 kPa, Buoyancy - hydrostatic balance	1112.65	–
303.15 K, 245160 kPa, Falling or rolling sphere viscometry	–	183.3
303.4 K, 101.33 kPa, Capillary tube (Ostwald / Ubbelohde) method	–	31.54
312.98 K, 98 kPa, Buoyancy - hydrostatic balance	1022.16	–
312.98 K, 98 kPa, Falling or rolling sphere viscometry	–	19.45
313 K, 49030 kPa, Buoyancy - hydrostatic balance	1046.22	–
313 K, 49030 kPa, Falling or rolling sphere viscometry	–	28.34
313.03 K, 147100 kPa, Buoyancy - hydrostatic balance	1081.67	–
313.03 K, 147100 kPa, Falling or rolling sphere viscometry	–	54.68
313.03 K, 245160 kPa, Buoyancy - hydrostatic balance	1107.51	–
313.03 K, 245160 kPa, Falling or rolling sphere viscometry	–	98.04
313.04 K, 196130 kPa, Buoyancy - hydrostatic balance	1095.69	–
313.04 K, 196130 kPa, Falling or rolling sphere viscometry	–	73.88
313.05 K, 98060 kPa, Buoyancy - hydrostatic balance	1065.24	–
313.05 K, 98060 kPa, Falling or rolling sphere viscometry	–	39.87
313.15 K, 101.33 kPa, Pycnometric method	1021.9	–
313.9 K, 101.33 kPa, Capillary tube (Ostwald / Ubbelohde) method	–	19.37
316 K, 101.33 kPa, Capillary tube (Ostwald / Ubbelohde) method	–	17.04
332.1 K, 101.33 kPa, Capillary tube (Ostwald / Ubbelohde) method	–	8.76
333.15 K, 101.33 kPa, Pycnometric method	1006.3	–
335.76 K, 98060 kPa, Buoyancy - hydrostatic balance	1050.34	–
335.76 K, 98060 kPa, Falling or rolling sphere viscometry	–	14.23
335.78 K, 98 kPa, Buoyancy - hydrostatic balance	1005.31	–
335.78 K, 98 kPa, Falling or rolling sphere viscometry	–	7.524
335.78 K, 147100 kPa, Buoyancy - hydrostatic balance	1068.19	–
335.78 K, 147100 kPa, Falling or rolling sphere viscometry	–	18.86
335.8 K, 49030 kPa, Buoyancy - hydrostatic balance	1029.3	–
335.8 K, 49030 kPa, Falling or rolling sphere viscometry	–	10.59
335.8 K, 196130 kPa, Buoyancy - hydrostatic balance	1082.92	–
335.8 K, 196130 kPa, Falling or rolling sphere viscometry	–	24.61
336.01 K, 245160 kPa, Buoyancy - hydrostatic balance	1095.8	–
336.01 K, 245160 kPa, Falling or rolling sphere viscometry	–	30.53
353.15 K, 101.33 kPa, Pycnometric method	990.28	–
353.4 K, 101.33 kPa, Capillary tube (Ostwald / Ubbelohde) method	–	4.29
353.6 K, 101.33 kPa, Capillary tube (Ostwald / Ubbelohde) method	–	4.18
364.39 K, 98 kPa, Buoyancy - hydrostatic balance	981.63	–
364.39 K, 98 kPa, Falling or rolling sphere viscometry	–	3.034
364.66 K, 49030 kPa, Buoyancy - hydrostatic balance	1007.36	–
364.66 K, 49030 kPa, Falling or rolling sphere viscometry	–	4.074
364.83 K, 98060 kPa, Buoyancy - hydrostatic balance	1031.15	–
364.83 K, 98060 kPa, Falling or rolling sphere viscometry	–	5.292
364.87 K, 147100 kPa, Buoyancy - hydrostatic balance	1051.61	–
364.87 K, 147100 kPa, Falling or rolling sphere viscometry	–	6.718
364.99 K, 245160 kPa, Buoyancy - hydrostatic balance	1081.56	–
364.99 K, 245160 kPa, Falling or rolling sphere viscometry	–	10.31
365 K, 196130 kPa, Buoyancy - hydrostatic balance	1067.32	–
365 K, 196130 kPa, Falling or rolling sphere viscometry	–	8.372
365.15 K, 101.33 kPa, Pycnometric method	978.97	–
368.15 K, 101.33 kPa, Pycnometric method	977.28	–
388.6 K, 101.33 kPa, Capillary tube (Ostwald / Ubbelohde) method	–	1.767
389.3 K, 101.33 kPa, Capillary tube (Ostwald / Ubbelohde) method	–	1.7
394.95 K, 98 kPa, Buoyancy - hydrostatic balance	953.22	–
394.95 K, 98 kPa, Falling or rolling sphere viscometry	–	1.504
395.11 K, 49030 kPa, Buoyancy - hydrostatic balance	982.98	–
395.11 K, 49030 kPa, Falling or rolling sphere viscometry	–	1.954
395.17 K, 98060 kPa, Buoyancy - hydrostatic balance	1010.62	–
395.17 K, 98060 kPa, Falling or rolling sphere viscometry	–	2.451
395.38 K, 147100 kPa, Buoyancy - hydrostatic balance	1033.92	–
395.38 K, 147100 kPa, Falling or rolling sphere viscometry	–	3.011
395.57 K, 196130 kPa, Buoyancy - hydrostatic balance	1051.9	–
395.57 K, 196130 kPa, Falling or rolling sphere viscometry	–	3.659
395.68 K, 245160 kPa, Buoyancy - hydrostatic balance	1067.12	–
395.68 K, 245160 kPa, Falling or rolling sphere viscometry	–	4.374
399.15 K, 101.33 kPa, Pycnometric method	949.76	–
423.3 K, 101.33 kPa, Capillary tube (Ostwald / Ubbelohde) method	–	0.926
423.51 K, 98 kPa, Buoyancy - hydrostatic balance	926.76	–
423.51 K, 98 kPa, Falling or rolling sphere viscometry	–	0.925
423.62 K, 49030 kPa, Buoyancy - hydrostatic balance	959.18	–
423.62 K, 49030 kPa, Falling or rolling sphere viscometry	–	1.239
423.65 K, 101.33 kPa, Pycnometric method	925.92	–
423.9 K, 98060 kPa, Buoyancy - hydrostatic balance	989.94	–
423.9 K, 98060 kPa, Falling or rolling sphere viscometry	–	1.533
423.97 K, 147100 kPa, Buoyancy - hydrostatic balance	1016.34	–
423.97 K, 147100 kPa, Falling or rolling sphere viscometry	–	1.89
424.05 K, 196130 kPa, Buoyancy - hydrostatic balance	1038.38	–
424.05 K, 196130 kPa, Falling or rolling sphere viscometry	–	2.244
424.3 K, 245160 kPa, Buoyancy - hydrostatic balance	1054.25	–
424.3 K, 245160 kPa, Falling or rolling sphere viscometry	–	2.608
450.15 K, 101.33 kPa, Pycnometric method	896.89	–
452.07 K, 245160 kPa, Buoyancy - hydrostatic balance	1042.31	–
452.07 K, 245160 kPa, Falling or rolling sphere viscometry	–	1.656
452.1 K, 49030 kPa, Buoyancy - hydrostatic balance	934.51	–
452.1 K, 49030 kPa, Falling or rolling sphere viscometry	–	0.81
452.14 K, 98060 kPa, Buoyancy - hydrostatic balance	965.53	–
452.14 K, 98060 kPa, Falling or rolling sphere viscometry	–	0.995
452.17 K, 98 kPa, Buoyancy - hydrostatic balance	900.36	–
452.17 K, 98 kPa, Falling or rolling sphere viscometry	–	0.604
452.18 K, 196130 kPa, Buoyancy - hydrostatic balance	1022.83	–
452.18 K, 196130 kPa, Falling or rolling sphere viscometry	–	1.425
452.19 K, 147100 kPa, Buoyancy - hydrostatic balance	996.01	–
452.19 K, 147100 kPa, Falling or rolling sphere viscometry	–	1.212
458.9 K, 101.33 kPa, Capillary tube (Ostwald / Ubbelohde) method	–	0.533
